The target of assay [1] is Amine oxidase [flavin-containing] B (Bos taurus) (UniProt P56560).
Assay [2] deals with Amine oxidase [flavin-containing] A (Bos taurus) (UniProt P21398).

Sequence of Amine oxidase [flavin-containing] B (Bos taurus) (P56560 whole entry, looked up): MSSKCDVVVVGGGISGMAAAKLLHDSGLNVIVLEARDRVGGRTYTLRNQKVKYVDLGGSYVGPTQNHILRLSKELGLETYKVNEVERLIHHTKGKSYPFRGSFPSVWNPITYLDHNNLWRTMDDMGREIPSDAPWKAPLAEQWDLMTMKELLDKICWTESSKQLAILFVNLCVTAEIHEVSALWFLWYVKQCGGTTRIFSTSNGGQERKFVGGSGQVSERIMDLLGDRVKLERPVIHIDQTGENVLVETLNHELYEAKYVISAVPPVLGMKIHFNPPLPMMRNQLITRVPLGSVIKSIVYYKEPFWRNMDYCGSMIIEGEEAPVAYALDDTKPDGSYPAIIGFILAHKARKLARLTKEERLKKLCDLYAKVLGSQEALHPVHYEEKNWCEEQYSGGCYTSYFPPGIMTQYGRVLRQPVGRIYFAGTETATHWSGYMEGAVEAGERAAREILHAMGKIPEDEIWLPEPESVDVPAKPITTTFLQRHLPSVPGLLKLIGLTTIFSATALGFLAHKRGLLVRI

In general, IC50 refers to the concentration at which inhibition is half-maximal. Low values mean higher potency, high ones lower potency. For the compound `CCOC(=O)C1=Cc2cc(Cl)ccc2CC1=O`, the values for the IC50 in assay [1] and in assay [2] were 1000 nM and 501 nM, respectively.

Values taken from ChEMBL document CHEMBL1137934, “Inhibition of monoamine oxidases by coumarin-3-acyl derivatives: biological activity and computational study” (Bioorg Med Chem Lett, 2004).
